Experimental data from ChEMBL document CHEMBL5726725, “Inhibitors of metallo-beta-lactamase (MBL) comprising a zinc chelating moiety” (2019).

Experiments:
[1] = (§1) MBL Inhibitory Activity in Constructed E. coli Cells Expressing MBLs: a. Transfer 50 μl LB with 0.8 mM IPTG (0.4 mM final concentration in assay) to each wellb. Add 1 μl inhibitor/positive control (500/1000 μM final concentration in assay) to selected wellsc. Add 50 μl overnight culture (=1) to each welld. Incubate in plate reader at 37° C. for 20 min with shakinge. Add 5 μl nitrocefin (3.2 mM) to selected wells with a multichannel pipettef. Incubate the plate in the plate reader for 3 hours, measuring nitrocefin hydrolysis at A482 every minute, with shaking in-betweeng. Measure endpoint at A600 to see how inhibitor alone effects bacterial growthh. Centrifuge the plate at 2800 rpm for 10 min, and transfer 50 μl to clean wellsi. Measure A482 endpoint.
[2] = molecular target: Metallo-beta-lactamase type 2 (Bacteria, UniProt C7C422); assay: as §1
Metallo-beta-lactamase type 2, sequence (C7C422 whole entry): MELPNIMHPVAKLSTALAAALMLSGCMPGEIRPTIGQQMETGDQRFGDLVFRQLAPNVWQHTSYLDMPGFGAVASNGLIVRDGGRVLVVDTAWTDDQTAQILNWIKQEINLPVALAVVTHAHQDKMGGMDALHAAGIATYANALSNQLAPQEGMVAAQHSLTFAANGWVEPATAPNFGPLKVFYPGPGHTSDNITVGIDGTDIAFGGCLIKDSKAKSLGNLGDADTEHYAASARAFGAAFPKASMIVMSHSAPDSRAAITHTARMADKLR

Q: What does the source list for `COc1ccc(Cn2cc(CN(Cc3ccccn3)Cc3ccccn3)nn2)cc1`?
A: IC50 [1]: 2.26 µM; IC50 [2]: 0.38 µM
